Measured values taken from patent US6599283B1, “Method of preventing reperfusion injury” (priority 2001, dated 2003).

Legend:
[1] = tested on: AMI patients undergoing primary PTCA; assay: Clinical events / clinical course in hospital after primary PTCA; type: in vivo, human
Protocol: (§1) Fifty four AMI patients undergoing primary PTCA were randomized to intracoronary adenosine or saline. The 2 groups were similar for age, sex, and infarct location. Patients referred for PTCA within 3 hours from the onset of AMI were considered for the study. Patients underwent diagnostic coronary angiography. If the culprit lesion was suitable for PTCA and presented with a TIMI flow from 0 to 2, the patient was included in the study and randomized after informed consent had been obtained. Patients presenting with TIMI 3 flow were diagnosed as having spontaneous reperfusion and were not included in the study.
(§2) After left and right coronary arteriography by the femoral approach, a temporary pacing wire was advanced into the right ventricle and connected with a pacemaker left on demand at 60 bpm. The obstruction of the infarct-related artery was crossed with a 0.014-in guidewire, and an over-the-wire balloon catheter was positioned at the level of the obstruction. The wire was pulled out, and diluted contrast was injected through the central lumen of the catheter to confirm positioning of the catheter tip downstream of the obstruction and to assess patency of the distal vessel. The balloon was inflated, and either adenosine (4 mg in 2 mL saline) or saline (2 mL) was hand-injected into the distal vascular bed in a random fashion. The rate of injection was such as to complete treatment in 1 minute. The guidewire was then readvanced into the distal vessel, and the balloon was deflated to initiate reperfusion of the ischemic territory. The dilatation procedure was completed according to standard technique. Stenting of the dilated coronary segment was performed only for suboptimal balloon results or flow-limiting dissections. […] The final angiogram was then obtained, and the patient was transferred to the intensive coronary care unit. If symptoms and/or ECG changes consistent with vessel reclosure occurred during this interval, coronary angiography was performed immediately, and therapeutic measures were applied. The dilation procedure was limited to the culprit lesion in all patients.
(§3) The primary end points of this study were feasibility and safety of intracoronary adenosine administration in the setting of primary PTCA and its effect on coronary blood flow. As secondary end points, indexes of myocardial damage, including left ventricular regional function, Q-wave MI, recurrence of angina, nonfatal MI, heart failure, and cardiac death were evaluated.
Physicians in charge of the patients in the intensive coronary care unit were informed of the angiographic results of the PTCA but were blinded to the intracoronary treatment administered during the procedure.

infarct-related artery = assay: Angiographic analysis (residual stenosis, TIMI flow, no-reflow) after primary PTCA; type: in vivo, human
Protocol: as §1
After left and right coronary arteriography by the femoral approach, a temporary pacing wire was advanced into the right ventricle and connected with a pacemaker left on demand at 60 bpm. The obstruction of the infarct-related artery was crossed with a 0.014-in guidewire, and an over-the-wire balloon catheter was positioned at the level of the obstruction. The wire was pulled out, and diluted contrast was injected through the central lumen of the catheter to confirm positioning of the catheter tip downstream of the obstruction and to assess patency of the distal vessel. The balloon was inflated, and either adenosine (4 mg in 2 mL saline) or saline (2 mL) was hand-injected into the distal vascular bed in a random fashion. The rate of injection was such as to complete treatment in 1 minute. The guidewire was then readvanced into the distal vessel, and the balloon was deflated to initiate reperfusion of the ischemic territory. The dilatation procedure was completed according to standard technique. Stenting of the dilated coronary segment was performed only for suboptimal balloon results or flow-limiting dissections. […]
The angiograms were reread as a single group, in chronological sequence, by observers who had not participated in the invasive procedure and were blinded to the treatment received. […] Diameter stenosis was measured by an automatic edge-detection system (Mipron, Kontron). […]

left ventricle = assay: Left ventricular regional function by 2D echocardiography; type: in vivo, human; conditions: echocardiogram after 1 week vs admission
Protocol: as §1, §2
Left ventricular function was evaluated by 2D echocardiography within 24 hours from admission and after 1 week. Echocardiography was performed with the patient lying supine with a 2.5-MHz transducer fitted to a dedicated system (Hewlett-Packard Sonos 1500). Images were recorded on S-VHS tapes and analyzed offline by 2 experienced observers blinded to the angiographic data. Four views were used: the parasternal long- and short-axis (at the level of the papillary muscle) and apical 2- and 4-chamber views. The left ventricle was divided into 16 segments. In each segment, wall motion was graded as normal, hypokinetic, akinetic, or dyskinetic. Segmental motion at admission was compared with segmental motion at 1 week to detect changes of regional function.

[2] = tested on: AMI patients undergoing primary PTCA; conditions: in vivo
Protocol: as §1
After left and right coronary arteriography by the femoral approach, a temporary pacing wire was advanced into the right ventricle and connected with a pacemaker left on demand at 60 bpm. […] The guidewire was then readvanced into the distal vessel, and the balloon was deflated to initiate reperfusion of the ischemic territory. […]
as §3

[3] = tested on: AMI patients undergoing primary PTCA; assay: Metabolic data: creatine kinase (CK) and CK-MB; type: in vivo, human; conditions: mean ± SD
Protocol: as §1
After left and right coronary arteriography by the femoral approach, a temporary pacing wire was advanced into the right ventricle and connected with a pacemaker left on demand at 60 bpm. The obstruction of the infarct-related artery was crossed with a 0.014-in guidewire, and an over-the-wire balloon catheter was positioned at the level of the obstruction. The wire was pulled out, and diluted contrast was injected through the central lumen of the catheter to confirm positioning of the catheter tip downstream of the obstruction and to assess patency of the distal vessel. […] The guidewire was then readvanced into the distal vessel, and the balloon was deflated to initiate reperfusion of the ischemic territory. […]

[4] = intracoronary adenosine 4 mg in 2 mL saline, n = 27

For `Nc1ncnc2c1ncn2[C@@H]1O[C@H](CO)[C@@H](O)[C@H]1O` [Adenosine, adenosine], the “Length of hospital stay” value ([1]; hospital stay) was 9.1 ± 0.8 days, the “Recurrent angina and/or ischemia” value ([1]; intracoronary adenosine 4 mg in 2 mL saline into distal vascular bed before balloon deflation, n = 27) was 3(11) number (%) of patients and the Cardiac death [1, 4] was 0(0) number (%) of patients. For the same compound, the “Cumulative clinical end points (recurrent angina and/or ischemia, non-fatal AMI, heart failure, cardiac death)” value [1, 4] was 5(18) number (%) of patients, the Heart failure [1, 4] was 2(7) number (%) of patients and the “Nonfatal AMI” value [1, 4] was 0(0) number (%) of patients. The “Clinical diagnosis of heart failure” value ([1]; n = 27) was “Two”, the “Composite end point of recurrent angina, nonfatal MI, heart failure, and cardiac death” value ([1]; n = 27) was 5 patients and the Deaths in hospital ([1]; n = 27) was “No deaths”. For the same compound, the “Developed a Q-wave ML” value ([1]; n = 27) was “Sixteen”, the Recurrence of angina ([1]; n = 27) was “Three” and the “Residual diameter stenosis by quantitative coronary arteriography” value (infarct-related artery; after PTCA, mean ± SD) was 27.8±9.5%. The “Flow in the infarct-related artery (TIMI grade)” value (infarct-related artery; at the end of the dilation procedure) was “TIMI 3 in all adenosine patients”, the “No-reflow phenomenon (drop of ≧1 TIMI grades in final angiogram relative to post-PTCA angiogram)” value (infarct-related artery; final angiogram 30 minutes after dilation, n = 27) was 1 patient and the “Regional wall motion unchanged” value (left ventricle) was 38 segments. The “Worsening of wall motion, share of segments” value (left ventricle) was 2%, the “Wall motion improved, share of initially dyssynergic segments” value (left ventricle; 114 dyssynergic segments) was 64% and the “Worsening of wall motion” value (left ventricle; 114 dyssynergic segments) was 3 segments. The “Wall motion improved, initially dyssynergic segments” value (left ventricle; 114 dyssynergic segments, 23 patients) was 73 segments, the “Bradyarrhythmias or tachyarrhythmias associated with protocol” value [2] was “No bradyarrhythmias or tachyarrhythmias” and the “Peak CK” value [3] was 1994±1782 U/L. For the same compound, the “Peak CK-MB” value [3] was 156±142 UAL.
